# In ChEMBL document CHEMBL1143901, “Lead identification of 2-iminobenzimidazole antagonists of the chemokine receptor CXCR3” (Bioorg Med Chem Lett, 2008):
# How the values were obtained:
# [1] = target: T1, C-X-C chemokine receptor type 3 (Homo sapiens, UniProt P49682); assay: Displacement of [125I]-CXCL10 from human CXCR3 expressed in CHO cell membrane; assay type: cell membranes
# T1 sequence (P49682 whole entry): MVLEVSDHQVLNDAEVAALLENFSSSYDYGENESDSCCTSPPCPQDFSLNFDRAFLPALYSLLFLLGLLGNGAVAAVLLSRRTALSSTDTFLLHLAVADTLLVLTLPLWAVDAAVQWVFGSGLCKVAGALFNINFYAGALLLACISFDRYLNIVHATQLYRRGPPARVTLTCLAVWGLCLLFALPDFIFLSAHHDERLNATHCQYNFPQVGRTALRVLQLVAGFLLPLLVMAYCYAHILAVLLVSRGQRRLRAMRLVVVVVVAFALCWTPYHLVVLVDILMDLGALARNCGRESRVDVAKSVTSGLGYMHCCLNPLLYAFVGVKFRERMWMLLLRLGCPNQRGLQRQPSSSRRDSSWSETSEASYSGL
# [2] = target: T1, C-X-C chemokine receptor type 3; assay: Antagonist activity at human CXCR3 expressed in CHO cell […] assessed as inhibition of calcium flux by FLIPR; assay type: functional, cell-based
# [3] = target: T2, C-X-C chemokine receptor type 3 (Mus musculus, UniProt O88410); assay: Displacement of [125I]-CXCL10 from mouse CXCR3 expressed in CHO cell membrane; assay type: cell membranes
# T2 sequence (O88410 whole entry): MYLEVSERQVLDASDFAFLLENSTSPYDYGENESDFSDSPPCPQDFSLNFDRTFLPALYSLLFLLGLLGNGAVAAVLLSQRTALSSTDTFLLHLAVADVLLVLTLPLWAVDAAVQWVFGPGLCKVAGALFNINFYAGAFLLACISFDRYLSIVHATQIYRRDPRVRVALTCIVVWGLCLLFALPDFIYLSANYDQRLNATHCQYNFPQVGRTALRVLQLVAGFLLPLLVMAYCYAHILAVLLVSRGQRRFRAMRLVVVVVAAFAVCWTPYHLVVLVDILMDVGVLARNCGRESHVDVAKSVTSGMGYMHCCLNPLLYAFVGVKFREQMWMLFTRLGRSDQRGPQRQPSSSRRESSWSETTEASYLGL
# [4] = Metabolic stability in mouse liver microsomes assessed as half life; assay type: ADME, Microsome
SMILES,IC50 [1] [nM],IC50 [2] [nM],IC50 [3] [nM],half-life [4] [min]
CC(=O)N(C)CCn1c(=N)n(CC(=O)c2ccc(Cl)cc2)c2ccccc21,1300,3400,–,–
CN(Cc1ccccc1)C(=O)Cn1c(=N)n(CC(=O)c2ccc(Cl)cc2)c2ccccc21,2200,–,–,–
CN(CCn1c(=N)n(CC(=O)c2ccc(Cl)cc2)c2ccccc21)C(=O)C1CCCCC1,500,900,–,–
CN(CCCn1c(=N)n(CC(=O)c2ccc(Cl)cc2)c2cccc(Cl)c21)C(=O)Cc1ccccc1,300,70,1400,–
CN(Cc1ccccc1)C(=O)CCn1c(=N)n(CC(=O)c2ccc(Cl)cc2)c2ccccc21,400,200,–,–
CCCn1c(=N)n(CC(=O)c2ccc(Cl)cc2)c2ccccc21,1100,–,–,–
CN(CCn1c(=N)n(CC(=O)c2ccc(Cl)cc2)c2ccccc21)C(=O)c1ccccc1,300,2300,–,–
Cn1c(=N)n(CC(=O)c2ccc(Cl)cc2)c2ccccc21,700,–,–,–
CN(CCCCn1c(=N)n(CC(=O)c2ccc(Cl)cc2)c2cccc(Cl)c21)C(=O)Cc1ccccc1,400,400,–,–
CN(CCn1c(=N)n(CC(=O)c2ccc(Cl)cc2)c2ccccc21)C(=O)Cc1ccccc1,400,800,–,–
CCOC(=O)CCn1c(=N)n(CC(=O)c2ccc(Cl)cc2)c2ccccc21,1200,2500,–,–
CN(CCn1c(=N)n(CC(=O)c2ccc(Cl)cc2)c2cccc(Cl)c21)C(=O)Cc1ccccc1,400,300,1500,–
CCc1cccc2c1n(CCCN(C)C(=O)Cc1ccccc1)c(=N)n2CC(=O)c1ccc(Cl)cc1,200,100,1800,–
CN(CCCn1c(=N)n(CC(=O)c2ccc(Cl)cc2)c2cccc(Cl)c21)C(=O)c1ccccc1,300,20,800,–
CCn1c(=N)n(CC(=O)c2ccc(Cl)cc2)c2ccccc21,700,3500,–,–
CN(CCCn1c(=N)n(CC(=O)c2ccc(Cl)cc2)c2cccc(Cl)c21)C(=O)C(C)(C)C,600,400,–,–

# These reach a lower IC50 [1]. Values come first.
IC50 [1] [nM],IC50 [2] [nM],IC50 [3] [nM],half-life [4] [min],SMILES
15,20,60,–,N=c1n(CC(=O)c2ccc(Cl)cc2)c2cccc(Cl)c2n1C[C@@H]1CCCN(C(=O)c2cccc3cccnc23)C1
30,20,200,–,CN(CCCn1c(=N)n(CC(=O)c2ccc(Cl)cc2)c2cccc(Cl)c21)C(=O)c1ccccn1
50,20,150,5.4,COc1ccccc1C(=O)N(C)CCCn1c(=N)n(CC(=O)c2ccc(Cl)cc2)c2cccc(Cl)c21
20,20,50,15,CN(CCCn1c(=N)n(CC(=O)c2ccc(Cl)cc2)c2cccc(Cl)c21)C(=O)c1cccc2cccnc12
16,20,70,–,N=c1n(CC(=O)c2ccc(Cl)cc2)c2cccc(Cl)c2n1C[C@H]1CCCN(C(=O)c2cccc3cccnc23)C1
8,20,40,7.5,N=c1n(CC(=O)c2ccc(Cl)cc2)c2cccc(Cl)c2n1CC[C@@H]1CCCN1C(=O)c1cccc2cccnc12
20,10,1100,–,N=c1n(CC(=O)c2ccc(Cl)cc2)c2cccc(Cl)c2n1CCCN(C(=O)c1cccc2cccnc12)C1CC1
15,20,80,–,N=c1n(CC(=O)c2ccc(Cl)cc2)c2cccc(Cl)c2n1CC1CCCN(C(=O)c2cccc3cccnc23)C1 (centres undefined)
15,40,500,9.5,CN(CCCn1c(=N)n(CC(=O)c2ccc(Cl)cc2)c2cccc(Cl)c21)C(=O)c1ccc2ccccc2c1
